# Measurements published in ChEMBL document CHEMBL4000232, “Structure-based optimization of 1H-imidazole-2-carboxamides as Axl kinase inhibitors utilizing a Mer mutant surrogate” (Bioorg Med Chem Lett, 2017).
# What was measured:
# [1] = molecular target: hERG (KCNH2) (Homo sapiens, UniProt Q12809); assay: Inhibition of human ERG at 10 uM relative to control
# [2] = Permeability of the compound by PAMPA; assay type: physicochemical; settings: read-out: permeability
# [3] = Oral bioavailability in rat; assay type: ADME, organism-based; settings: in vivo
# [4] = Clearance in rat; assay type: ADME; settings: in vivo
# [5] = molecular target: T1, Tyrosine-protein kinase receptor UFO (Homo sapiens, UniProt P30530); assay: Inhibition of Axl (unknown origin)
# T1 sequence (P30530 whole entry): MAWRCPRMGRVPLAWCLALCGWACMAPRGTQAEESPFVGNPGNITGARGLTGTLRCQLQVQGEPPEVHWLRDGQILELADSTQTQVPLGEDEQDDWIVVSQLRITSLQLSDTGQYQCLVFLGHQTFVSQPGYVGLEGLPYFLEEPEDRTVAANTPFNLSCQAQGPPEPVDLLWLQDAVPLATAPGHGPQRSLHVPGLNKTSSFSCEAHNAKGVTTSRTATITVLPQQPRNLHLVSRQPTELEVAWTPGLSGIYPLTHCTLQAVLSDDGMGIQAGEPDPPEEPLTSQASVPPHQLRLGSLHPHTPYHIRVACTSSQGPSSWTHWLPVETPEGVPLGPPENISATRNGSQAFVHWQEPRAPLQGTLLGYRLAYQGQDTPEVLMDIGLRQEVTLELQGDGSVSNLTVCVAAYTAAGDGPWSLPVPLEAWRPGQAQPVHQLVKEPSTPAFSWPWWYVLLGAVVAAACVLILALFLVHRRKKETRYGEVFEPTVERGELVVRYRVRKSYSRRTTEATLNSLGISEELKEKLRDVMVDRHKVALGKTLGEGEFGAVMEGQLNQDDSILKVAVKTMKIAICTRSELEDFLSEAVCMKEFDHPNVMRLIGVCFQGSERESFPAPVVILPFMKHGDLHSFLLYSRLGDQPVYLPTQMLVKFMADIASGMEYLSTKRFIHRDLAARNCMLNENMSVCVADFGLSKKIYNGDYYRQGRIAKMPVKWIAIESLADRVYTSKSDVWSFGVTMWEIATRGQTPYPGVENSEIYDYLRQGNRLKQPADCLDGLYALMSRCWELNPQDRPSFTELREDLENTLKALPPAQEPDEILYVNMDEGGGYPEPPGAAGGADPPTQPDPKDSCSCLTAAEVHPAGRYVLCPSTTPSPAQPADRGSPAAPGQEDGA
# [6] = Extraction ratio in human hepatic microsomes; assay type: ADME, Microsome; settings: liver microsomes, read-out: ERH
# [7] = Extraction ratio in rat hepatic microsomes; assay type: ADME, Microsome; settings: liver microsomes, read-out: ERH
# [8] = tested on: HepG2; assay: Cytotoxicity against human HepG2 cells; assay type: functional
# [9] = tested on: Liver; assay: Intrinsic clearance in rat liver microsomes; assay type: ADME, microsome
# [10] = Inhibition of CYP450 (unknown origin); assay type: ADME; settings: human
# [11] = Protein binding in rat plasma; assay type: ADME, cell-free; settings: read-out: PPB (converted)
# [12] = Protein binding in human plasma; assay type: ADME, cell-free; settings: read-out: PPB (converted)
# hERG (KCNH2), sequence (Q12809 whole entry): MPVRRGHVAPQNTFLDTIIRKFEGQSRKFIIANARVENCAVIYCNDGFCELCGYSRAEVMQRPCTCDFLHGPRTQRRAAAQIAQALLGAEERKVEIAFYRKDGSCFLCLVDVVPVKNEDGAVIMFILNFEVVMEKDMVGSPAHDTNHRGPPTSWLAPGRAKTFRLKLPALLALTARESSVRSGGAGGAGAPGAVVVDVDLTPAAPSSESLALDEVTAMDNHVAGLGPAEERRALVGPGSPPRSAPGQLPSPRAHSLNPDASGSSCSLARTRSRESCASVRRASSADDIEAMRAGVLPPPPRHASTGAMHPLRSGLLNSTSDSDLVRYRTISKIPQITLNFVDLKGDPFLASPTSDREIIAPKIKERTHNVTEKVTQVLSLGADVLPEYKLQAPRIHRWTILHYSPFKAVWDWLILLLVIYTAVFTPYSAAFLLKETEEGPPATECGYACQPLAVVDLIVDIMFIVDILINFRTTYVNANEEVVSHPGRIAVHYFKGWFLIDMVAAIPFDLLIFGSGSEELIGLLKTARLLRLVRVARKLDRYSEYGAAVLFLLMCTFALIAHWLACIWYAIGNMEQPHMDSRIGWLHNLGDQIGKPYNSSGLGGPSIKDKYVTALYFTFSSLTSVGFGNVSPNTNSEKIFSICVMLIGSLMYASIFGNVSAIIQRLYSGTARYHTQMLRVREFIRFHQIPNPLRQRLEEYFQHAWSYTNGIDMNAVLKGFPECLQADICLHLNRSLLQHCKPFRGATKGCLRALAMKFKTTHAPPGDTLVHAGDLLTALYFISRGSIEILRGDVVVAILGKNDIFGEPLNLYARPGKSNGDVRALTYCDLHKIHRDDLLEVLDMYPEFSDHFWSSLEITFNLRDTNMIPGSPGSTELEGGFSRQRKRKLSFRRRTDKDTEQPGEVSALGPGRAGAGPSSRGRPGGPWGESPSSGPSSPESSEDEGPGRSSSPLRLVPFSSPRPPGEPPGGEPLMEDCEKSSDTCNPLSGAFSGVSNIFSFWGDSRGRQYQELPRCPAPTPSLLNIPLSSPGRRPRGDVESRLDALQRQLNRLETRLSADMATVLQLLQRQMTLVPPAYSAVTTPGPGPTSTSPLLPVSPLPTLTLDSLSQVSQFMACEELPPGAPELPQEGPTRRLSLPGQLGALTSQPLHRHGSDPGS
IC50 [5] [nM],hepatic extraction ratio [6],hepatic extraction ratio [7],SMILES,other results
> 1000,0.75,0.69,COC(=O)N1CCC[C@H](c2csc(-c3ccccc3NC(=O)c3ncc[nH]3)n2)C1,–
> 1000,0.78,0.67,CC(=O)N1CCC[C@H](c2csc(-c3ccccc3NC(=O)c3ncc[nH]3)n2)C1,–
> 630,0.95,0.86,CCS(=O)(=O)N1CCC[C@H](c2csc(-c3ccccc3NC(=O)c3ncc[nH]3)n2)C1,–

# More lines, now with the values behind:
SMILES,IC50 [5] [nM],hepatic extraction ratio [6],hepatic extraction ratio [7],other results
CS(=O)(=O)N1CCC[C@H](c2csc(-c3ccccc3NC(=O)c3ncc[nH]3)n2)C1,–,–,–,inhibition at 10 µM [1]: 94%; Papp [2]: 15.7 ×10⁻⁶ cm/s; bioavailability [3]: 13%; clearance [4]: 20 mL/min/kg
CS(=O)(=O)N1CCC[C@H](c2csc(-c3ccccc3NC(=O)c3nc4ccccc4[nH]3)n2)C1,> 1000,0.86,0.87,–
CS(=O)(=O)N1CCC[C@H](c2csc(-c3ccccc3NC(=O)c3cnc[nH]3)n2)C1,> 1000,0.9,0.71,–
CS(=O)(=O)N1CCO[C@H](c2csc(-c3cc(N4CCOCC4)ccc3NC(=O)c3ncc[nH]3)n2)C1,–,–,–,inhibition at 10 µM [1]: 19%; Papp [2]: 18.4 ×10⁻⁶ cm/s; Activity [8]: 14 µM; CLH [9]: 35 mL/min/kg; bioavailability [3]: 38%; inhibition (INH) [10]: > 16%; fraction unbound [11]: 0.1; clearance [4]: 54 mL/min/kg; fraction unbound [12]: 0.21
